Assay results: US6627411B2, “Method for evaluating matrix metalloprotease inhibitory activity” (Shionogi & Co., Ltd., priority 1999, dated 2003)

Columns and labels:
MMP-1 = molecular target: T1, MMP-1 (Homo sapiens, UniProt P03956); assay: MMP inhibitory activity IC50, MMP-1; format: biochemical
T1 sequence (P03956 100-469): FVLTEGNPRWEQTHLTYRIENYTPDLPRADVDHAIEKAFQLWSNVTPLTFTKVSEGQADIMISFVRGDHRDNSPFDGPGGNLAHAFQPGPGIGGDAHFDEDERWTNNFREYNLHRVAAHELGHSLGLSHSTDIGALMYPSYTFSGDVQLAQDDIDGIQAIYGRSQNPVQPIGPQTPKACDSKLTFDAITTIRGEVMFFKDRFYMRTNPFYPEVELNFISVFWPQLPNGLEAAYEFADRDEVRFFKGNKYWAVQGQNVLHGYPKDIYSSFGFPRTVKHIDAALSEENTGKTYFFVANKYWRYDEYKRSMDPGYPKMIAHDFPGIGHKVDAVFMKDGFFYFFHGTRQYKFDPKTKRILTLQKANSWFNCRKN

MMP-2 = molecular target: T2, MMP-2 (Homo sapiens, UniProt P08253); assay: MMP inhibitory activity IC50, MMP-2; format: biochemical
T2 sequence (P08253 110-660): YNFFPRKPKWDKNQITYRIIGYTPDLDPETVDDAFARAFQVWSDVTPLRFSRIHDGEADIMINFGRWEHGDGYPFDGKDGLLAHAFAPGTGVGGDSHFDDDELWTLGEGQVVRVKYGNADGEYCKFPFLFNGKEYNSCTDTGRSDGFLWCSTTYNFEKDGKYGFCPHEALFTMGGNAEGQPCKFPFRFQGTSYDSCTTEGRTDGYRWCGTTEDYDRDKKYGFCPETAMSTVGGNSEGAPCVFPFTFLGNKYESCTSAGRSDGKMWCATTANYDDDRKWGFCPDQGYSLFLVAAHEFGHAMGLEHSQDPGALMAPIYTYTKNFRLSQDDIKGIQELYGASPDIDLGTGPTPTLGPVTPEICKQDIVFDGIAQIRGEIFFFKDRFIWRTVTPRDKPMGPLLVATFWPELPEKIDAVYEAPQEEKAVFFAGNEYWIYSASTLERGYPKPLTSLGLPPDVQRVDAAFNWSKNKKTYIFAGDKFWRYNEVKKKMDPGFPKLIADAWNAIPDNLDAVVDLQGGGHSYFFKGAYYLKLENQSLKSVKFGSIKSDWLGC

MMP-3 = MMP-3 (Homo sapiens, UniProt P08254); assay: MMP inhibitory activity IC50, MMP-3; format: biochemical
Chain of MMP-3 (P08254 100-477, species assumed): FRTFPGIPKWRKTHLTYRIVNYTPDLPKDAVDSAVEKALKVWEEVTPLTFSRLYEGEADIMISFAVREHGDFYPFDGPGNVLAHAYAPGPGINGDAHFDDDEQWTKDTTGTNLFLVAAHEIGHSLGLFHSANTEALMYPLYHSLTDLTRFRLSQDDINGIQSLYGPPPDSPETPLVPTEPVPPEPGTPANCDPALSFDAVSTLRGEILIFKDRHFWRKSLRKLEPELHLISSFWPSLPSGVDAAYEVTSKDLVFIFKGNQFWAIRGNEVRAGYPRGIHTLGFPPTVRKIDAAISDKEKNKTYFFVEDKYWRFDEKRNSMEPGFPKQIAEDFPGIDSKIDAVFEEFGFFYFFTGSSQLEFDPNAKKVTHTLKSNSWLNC

MMP-7 = molecular target: T3, MMP-7 (Homo sapiens, UniProt P09237); assay: MMP inhibitory activity IC50, MMP-7; format: biochemical
T3 sequence (P09237 95-267): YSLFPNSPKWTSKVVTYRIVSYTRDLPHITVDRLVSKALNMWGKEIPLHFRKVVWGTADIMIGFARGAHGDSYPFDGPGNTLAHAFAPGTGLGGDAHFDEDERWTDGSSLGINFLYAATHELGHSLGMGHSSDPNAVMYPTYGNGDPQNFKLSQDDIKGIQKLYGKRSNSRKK

MMP-9 = MMP-9 (Homo sapiens, UniProt P14780); assay: MMP inhibitory activity IC50, MMP-9; format: biochemical
Chain of MMP-9 (P14780 94-707, species assumed): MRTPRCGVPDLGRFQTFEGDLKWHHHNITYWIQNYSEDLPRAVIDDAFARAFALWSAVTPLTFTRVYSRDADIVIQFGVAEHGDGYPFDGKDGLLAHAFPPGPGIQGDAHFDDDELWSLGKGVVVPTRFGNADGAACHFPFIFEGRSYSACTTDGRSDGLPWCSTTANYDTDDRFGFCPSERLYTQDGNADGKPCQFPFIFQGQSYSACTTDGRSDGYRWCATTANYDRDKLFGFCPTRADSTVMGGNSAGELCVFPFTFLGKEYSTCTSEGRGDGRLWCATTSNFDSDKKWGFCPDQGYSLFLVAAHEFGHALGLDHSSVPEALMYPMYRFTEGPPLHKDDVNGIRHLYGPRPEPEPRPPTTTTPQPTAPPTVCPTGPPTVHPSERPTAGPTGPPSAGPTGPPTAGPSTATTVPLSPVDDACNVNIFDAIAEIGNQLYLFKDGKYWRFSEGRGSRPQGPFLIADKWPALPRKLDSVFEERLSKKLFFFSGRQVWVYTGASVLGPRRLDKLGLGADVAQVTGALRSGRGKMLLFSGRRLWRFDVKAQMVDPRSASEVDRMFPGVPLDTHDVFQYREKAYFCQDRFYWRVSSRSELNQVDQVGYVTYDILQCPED

MMP-14 = MMP-14 (Homo sapiens, UniProt P50281); assay: MMP inhibitory activity IC50, MMP-14; format: biochemical
[1] = test system: gelatin degradation in cancer tissue (human lung cancer cell line Ma44); assay: In situ zymography of tumor mass from Ma44-bearing nude mice after oral administration; format: in vivo; conditions: for Quantitative analysis using Optimas Ver.6 (brightness in each tissue/size in each tissue): 200 mg/kg orally, two hours after administration, vehicle 49.2; for inhibition of the gelatin degradation: nude mice; for Quantitative analysis using Optimas Ver.6: vehicle 53.4
Description: Fifteen g of acid-treated swine cutis gelatin was dissolved in 123 g of pure water, and the solution was added with 1.2 ml of 1,2-bis(vinylsulfonylacetamido)ethane (4%) as a hardening agent. The solution was uniformly applied to a polyethylene terephthalate film undercoated with gelatin so as to obtain a dried membrane having a thickness of about 7 μm, and the membrane was dried to obtain a gelatin thin membrane. The gelatin thin membrane was stored at room temperature until the use.
Human lung cancer cell line Ma44 (CANCER RESEARCH 59, 1231-35 (1999)) that was known to produce MMP-2 in a large amount was used. Nude mice (six weeks aged, female, CLEA Japan, Inc.) were transplanted intraperitoneally with 1×10^5 Ma44 cells, and, 14 days later, BPHA or (−)BPHA was administered orally to the animals at 200 mg/kg. As control, a vehicle (a physiological saline containing 0.4% Tween80, 0.5% carboxymethyl cellulose, and 0.9% benzyl alcohol) was similarly administered. Two hours after the administration, the cancer-bearing mice were autopsied to remove the tumor mass formed at the abdominal wall and the mesenterium, and the mass was subjected to the in situ zymography experiment.
The tumor mass was embedded in OCT Compound (SAKURA), and then Microtone/Cryostat TISSUE TEK II (Miles-Sankyo) was used to prepare […] having a thickness of 8 μm. The […] were placed gently onto the gelatin thin membrane previously prepared to give samples, and then the membranes were placed into a humid bath to prevent them from drying, followed by leaving the membranes to stand in an incubator at 37° C. After reacted for 3.5 hours, the thin membranes were taken out, and stained with a 1% Amido Black solution (Wako Pure Chemical Industries) for 15 minutes. Subsequently, the membranes were treated with a decolorizing solution (70% methanol, 10% acetic acid) for 10 minutes.
The cancer tissue on the thin membrane was observed under light microscopy to determine the area where the gelatin degradation was recognized. Additionally, the slide scanner (Nikon 35 mm film scanner: COOLSCAN II) was used to analyze quantitatively the tone with the software Optimas Ver.6 (Optimas Corporation).
was orally administered at dosages of 0.2, 2.0, 20.0, and 200.0 mg/kg in stead of the administrations of BPHA and (−)BPHA, treatments were conducted for in situ zymography.

| Compound | IC50 (MMP-1) [nM] | IC50 (MMP-2) [nM] | IC50 (MMP-3) [nM] | IC50 (MMP-7) [nM] | IC50 (MMP-9) [nM] | IC50 (MMP-14) [nM] | Quantitative analysis using Optimas Ver.6 (brightness in each tissue/size in each tissue) [1] | inhibition of the gelatin degradation ([1]; 0.2 mg/kg orally) | Quantitative analysis using Optimas Ver.6 ([1]; 0.2 mg/kg orally) | Quantitative analysis using Optimas Ver.6 ([1]; 2.0 mg/kg orally) | Quantitative analysis using Optimas Ver.6 ([1]; 20.0 mg/kg orally) | inhibition of the gelatin degradation ([1]; 200.0 mg/kg orally) | Quantitative analysis using Optimas Ver.6 ([1]; 200.0 mg/kg orally) | inhibition of the gelatin degradation ([1]; 20.0 to 2.0 mg/kg orally) |
| --- | --- | --- | --- | --- | --- | --- | --- | --- | --- | --- | --- | --- | --- | --- |
| O=C(NO)[C@H](Cc1ccccc1)NS(=O)(=O)c1ccc(-c2ccccc2)cc1 [(−)BPHA] | > 1000 | > 1000 | > 1000 | > 1000 | > 1000 | > 1000 | 40.1 | – | – | – | – | – | – | – |
| O=C(NO)[C@@H](Cc1ccccc1)NS(=O)(=O)c1ccc(-c2ccccc2)cc1 [BPHA] | 974 | 12 | > 1000 | 795 | 16 | 17 | 8.6 | – | – | – | – | – | – | – |
| O=C(O)[C@@H](Cc1c[nH]c2ccccc12)NS(=O)(=O)c1ccc(-c2nnn(-c3ccccc3)n2)cc1 [MMI-166] | – | – | – | – | – | – | – | merely partial inhibition | 41.3 | 28.6 | 13.7 | complete inhibition of the gelatin degradation | 5.3 | the inhibition was lowered in sequence |
